Assay results: publication PMC7754465, “Multiparameter Kinetic Analysis for Covalent Fragment Optimization by Using Quantitative Irreversible Tethering (qIT)” (Chembiochem, 2020)

Target: His-Cdk2(F80C,C177A,D145N) (Homo sapiens, UniProt P24941, C177A/D145N/F80C)
Assay: qIT assay with His-Cdk2(F80C,C177A,D145N)
Format: binding
Conditions: acrylamide 69 0.5 mM, thiol 5 µM
Procedure: site that is normally occupied by the adenosine core of ATP. Indeed, the methyl ester engages in a hydrogen-bonding interaction with the backbone amide of Leu83, mimicking the pyrimidine pharmacophore of ATP, while the acrylamide carbonyl itself is hydrogen bonded to the ε-amine of Lys32.
Next the 57-Cdk2(F80C,C177A) conjugate was prepared and crystallised by heterogeneous microseeding in an analogous manner. This complex diffracted to 2.0 GS H Å […]
Although acrylamide Cdk2(F80C,C177A,D145N) 57 could be O […]
modelled into the electron density map with a cov1.25 alent bond to Cys80, the ligand-binding mode was less clearly defined (Figure 72b). It is postulated that either the ligand binds in N […]
multiple unresolved modes or that the protein was not fully modified such that the ligand 69 […]
clin A2 to form active holoenzymes. The holoenzymes were incubated with peptide substrate, ATP, NADH, PEP, LD and PK Tim e ( h) ! at 37 °C and the absorbance measured over time in clear 384-well plates. Kinase activity is determined from the gradient of Figure the absorbance over time (between 100084. Fluorescence data (normalised against DMSO –3000 s) and normalised relative to pCdk2(WT) = 100% and cyclin A2 only = 0% (n = control) from qIT assay for acrylamide […]
glutathione (5 µM). Vertical error bars represent the standard deviation of fluorogenic thiol quantifications, performed in duplicate. […]

C=CC(=O)N1CCN(CC)c2ccccc21 [compound 6]
k, thiol Cdk2(F80C,C177A,D145N): 0.23 h–1
